Assay results published in ChEMBL document CHEMBL1126342, “Synthesis and preliminary biological evaluation of 1-aminomethyl-4-substituted-4-H-pyrrolo[2,1-C][1,4] benzothiazines, a new class of calcium antagonists” (Bioorg Med Chem Lett, 1992).
Where “and” joins values, the source holds several entries; their conditions need not be identical. Identical values can stand only once.

Assays:
Mus musculus [1] = species on record: Mus musculus; experiment: Blocking calcium channels in mice using electrophysiological technique at 10 uM; format: functional
Mus musculus [2] = species on record: Mus musculus; experiment: Blocking calcium channels in mice using electrophysiological technique at 100 uM; format: functional
[3] = target: Voltage-gated L-type calcium channel (Rattus norvegicus, UniProt P22002+Q02485+P27732); experiment: Displacement of [3H]nitrendipine from calcium channel receptor; format: protein assay

IC50 [3] [nM]	Ki [3] [nM]	SMILES	Activity (Mus musculus [1])	Activity (Mus musculus [2]) [%]
150	56	COc1ccc(C2Sc3ccccc3-n3c(CN(C)C)ccc32)c(OC)c1 (centres undefined)	24%	74
53	19	COc1ccc(C2Sc3ccccc3-n3c(CN(C)CCc4ccc(OC)c(OC)c4)ccc32)cc1.Cl (centres undefined)	–	–
315	118	CN(C)Cc1ccc2n1-c1ccccc1SC2c1ccccc1 (centres undefined)	40% and 65%	–
5870	2200	COc1ccc(C2Sc3ccccc3-n3c(CNc4ccc(F)cc4)ccc32)cc1 (centres undefined)	–	–
–	–	COc1ccc(C2Sc3ccccc3-n3c(CN(C)C)ccc32)cc1 (centres undefined)	20%	62
–	–	COc1ccc([C@@H]2Sc3ccccc3N(CCN(C)C)C(=O)[C@@H]2OC(C)=O)cc1 [DILTIAZEM]	24%	62
534	200	COc1ccc(C2Sc3ccccc3-n3c(CNCCc4ccc(OC)c(OC)c4)ccc32)cc1 (centres undefined)	–	–
14.8	5.55	CCC(C)NCc1ccc2n1-c1ccccc1SC2c1ccc(OC)cc1OC (centres undefined)	–	–
